Laboratory results: US20240400555A1 (Initial Therapeutics, Inc., priority 2023, published 2024)

system: MV-4-11 cells; experiment: Cell Viability Assay in MV-4-11 Cells; type: cell-based; details: Homo sapiens, MV4-11, 72 h, MV-4-11 cells, 72 h, Cell-Titer Glo; read-out: IC50
Description: MV-4-11 cells (ATCC) were seeded into sterile 96-well flat clear bottom white polystyrene TC-treated microplates (Corning) at 7,000 cells/well in 150 μL complete growth medium (Iscove's Modified Dulbecco's Medium (IMDM) (Gibco), 10% Heat Inactivated Fetal Bovine Serum (HyClone), 1% Penicillin-Streptomycin-L-Glutamine (HyClone), 1% GlutaMAX (Gibco)). […] After 72 h incubation, plates were removed from incubators and allowed to equilibrate to room temperature (˜10 min) before adding 50 μL per well Cell-Titer Glo reagent (Promega) using a WellJet (Integra Biosciences) dispenser. Plates were then incubated at room temperature for 2-20 min prior to measurement of luminescence on an Envision (Perkin Elmer) plate reader. Data were normalized to DMSO (100% viability) and analyzed using a non-linear four-parameter curve fit.

IC50 | Compound
240 nM | O=C(c1ccc(-n2nnc3cccnc32)cc1F)N(c1nccc2sc(-c3ccnc(F)c3)cc12)[C@@H]1CCCNC1 [Example 566, 2-fluoro-N-[2-(2-fluoro-4-pyridyl)thieno [3,2-c]pyridin-4-yl]-N-[(3R)-3-piperidyl]-4-(triazolo [4,5-b]pyridin-3-yl) benzamide]
250 nM | Cn1cc(-c2ccc(C(=O)N(c3nccc4sc(-c5ccsc5)cc34)[C@@H]3CCCNC3)c(F)c2)nn1 [Example 511, 2-fluoro-4-(1-methyltriazol-4-yl)-N-[(3R)-3-piperidyl]-N-[2-(3-thienyl)thieno[3,2-c]pyridin-4-yl]benzamide]
570 nM | Cc1cc(C)c2c(N(C(=O)c3ccc(-c4nc(C)no4)nc3)[C@@H]3CCCNC3)nccc2c1 [Example 916, N-(6,8-dimethyl-1-isoquinolyl)-6-(3-methyl-1,2,4-oxadiazol-5-yl)-N-[(3R)-3-piperidyl]pyridine-3-carboxamide]
200 nM | CNS(=O)(=O)c1ccc(-c2cc3c(N(C(=O)c4ccc(-c5cn(C)nn5)cc4F)[C@@H]4CCCNC4)nccc3s2)cc1 [Example 534, (R)-2-fluoro-4-(1-methyl-1H-1,2,3-triazol-4-yl)-N-(2-(4-(N-methylsulfamoyl)phenyl)thieno[3,2-c]pyridin-4-yl)-N-(piperidin-3-yl)benzamide]
91 nM | Cn1cc(-c2ccc(C(=O)N(c3nccc4cc(Cl)ccc34)[C@@H]3CCCNC3)c(F)c2)nn1 [Example 470, N-(6-chloro-1-isoquinolyl)-2-fluoro-4-(1-methyltriazol-4-yl)-N-[(3R)-3-piperidyl]benzamide]
26 nM | O=C(c1ccc(Nc2ncccn2)cc1F)N(c1nccc2sc(-c3ccncc3)cc12)[C@@H]1CCCNC1 [Example 433]
20 nM | Cc1cccc2ccnc(N(C(=O)c3ccc(Nc4nccc(N5CC[C@H](O)C5)n4)cc3F)[C@@H]3CCCNC3)c12 [Example 625, 2-fluoro-4-((4-((S)-3-hydroxypyrrolidin-1-yl)pyrimidin-2-yl)amino)-N-(8-methylisoquinolin-1-yl)-N—((R)-piperidin-3-yl)benzamide]
520 nM | COc1cccc(-c2cc3c(N(C(=O)c4ccc(-n5nnc6cccnc65)cc4F)[C@@H]4CCCNC4)nccc3s2)c1 [Example 385, (R)-4-(3H-[1,2,3]triazolo[4,5-b]pyridin-3-yl)-2-fluoro-N-(2-(3-methoxyphenyl)thieno[3,2-c]pyridin-4-yl)-N-(piperidin-3-yl)benzamide]
310 nM | Cn1cc(-c2ccc(C(=O)N(c3nccc4sc(-c5ccc6cc[nH]c6c5)cc34)[C@@H]3CCCNC3)c(F)c2)nn1 [Example 543, 2-fluoro-N-[2-(1H-indol-6-yl)thieno [3,2-c]pyridin-4-yl]-4-(1-methyltriazol-4-yl)-N-[(3R)-3-piperidyl] benzamide]
280 nM | Cc1noc(-c2ccc(C(=O)N(c3nccc4scc(C)c34)[C@@H]3CCCNC3)c(F)c2)n1 [Example 778, (R)-2-fluoro-4-(3-methyl-1,2,4-oxadiazol-5-yl)-N-(3-methylthieno[3,2-c]pyridin-4-yl)-N-(piperidin-3-yl)benzamide]
460 nM | Cn1cc(-c2ccc(C(=O)N(c3nccc4sc(-c5ccc(C(N)C(F)(F)F)cc5)cc34)[C@@H]3CCCNC3)c(F)c2)nn1 (stereo partly drawn) [Example 613, N-(2-(4-(1-amino-2,2,2-trifluoroethyl)phenyl)thieno[3,2-c]pyridin-4-yl)-2-fluoro-4-(1-methyl-1H-1,2,3-triazol-4-yl)-N—((R)-piperidin-3-yl)benzamide]
160 nM | Cc1nnc(-c2ccc(C(=O)N(c3nccc4scc(C)c34)[C@@H]3CCCNC3)cn2)s1 [Example 629, 6-(5-methyl-1,3,4-thiadiazol-2-yl)-N-(3-methylthieno[3,2-c]pyridin-4-yl)-N-[(3R)-3-piperidyl]pyridine-3-carboxamide]
190 nM | COCc1cn(-c2ccc(C(=O)N(c3nccc4cc(Cl)cc(C)c34)[C@@H]3CCCNC3)nc2)nn1 [Example 632, (R)—N-(6-chloro-8-methylisoquinolin-1-yl)-5-(4-(methoxymethyl)-1H-1,2,3-triazol-1-yl)-N-(piperidin-3-yl)picolinamide]
260 nM | Cn1cc(-c2ccc(C(=O)N(c3nccc4sc(-c5ccccc5)cc34)[C@@H]3CCCNC3)c(F)c2)nn1 [Example 510, 2-fluoro-4-(1-methyltriazol-4-yl)-N-(2-phenylthieno[3,2-c]pyridin-4-yl)-N-[(3R)-3-piperidyl]benzamide]
110 nM | O=C(c1ccc(-n2nnc3cccnc32)cc1F)N(c1nccc2sc(-c3cccc(CO)c3)cc12)[C@@H]1CCCNC1 [Example 424, 2-fluoro-N-[2-[3-(hydroxymethyl)phenyl]thieno[3,2-c]pyridin-4-yl]-N-[(3R)-3-piperidyl]-4-(triazolo[4,5-b]pyridin-3-yl)benzamide]
78 nM | Nc1ccc(-c2cc3c(N(C(=O)c4ccc(-n5nnc6cccnc65)cc4F)[C@@H]4CCCNC4)nccc3s2)cn1 [Example 553, N-[2-(6-amino-3-pyridyl)thieno[3,2-c]pyridin-4-yl]-2-fluoro-N-[(3R)-3-piperidyl]-4-(triazolo[4,5-b]pyridin-3-yl)benzamide]
430 nM | Cc1cccc2ccnc(N(C(=O)c3cccc(C#CCCC(=O)N4CCOCC4)c3)[C@@H]3CCCNC3)c12 [Example 519, (R)—N-(8-methylisoquinolin-1-yl)-3-(5-morpholino-5-oxopent-1-yn-1-yl)-N-(piperidin-3-yl)benzamide]
3200 nM | CCc1nnc(-c2ccc(C(=O)N(c3nccc4c(C)csc34)[C@@H]3CCCNC3)nc2)s1 [Example 669, 5-(5-ethyl-1,3,4-thiadiazol-2-yl)-N-(3-methylthieno[2,3-c]pyridin-7-yl)-N-[(3R)-3-piperidyl]pyridine-2-carboxamide]
3700 nM | O=C(c1ccc(Nc2ncccn2)cc1F)N(c1nccc2cc(Nc3ncccn3)ccc12)[C@@H]1CCCNC1 [Example 738, (R)-2-fluoro-N-(piperidin-3-yl)-4-(pyrimidin-2-ylamino)-N-(6-(pyrimidin-2-ylamino)isoquinolin-1-yl)benzamide]
760 nM | CNC(=O)c1ccc(-c2cc3c(N(C(=O)c4ccc(-c5cn(C)nn5)cc4F)[C@@H]4CCCNC4)nccc3s2)cc1 [Example 521, (R)-2-fluoro-4-(1-methyl-1H-1,2,3-triazol-4-yl)-N-(2-(4-(methylcarbamoyl)phenyl)thieno[3,2-c]pyridin-4-yl)-N-(piperidin-3-yl)benzamide]
440 nM | Cc1cc(-c2ccc(C(=O)N(c3nccc4cccc(C)c34)[C@@H]3CCCNC3)c(F)c2)[nH]n1 [Example 323, (R)-2-fluoro-4-(3-methyl-1H-pyrazol-5-yl)-N-(8-methylisoquinolin-1-yl)-N-(piperidin-3-yl) benzamide]
140 nM | COc1cc(C)c2c(N(C(=O)c3ccc(-c4nnc(C)s4)nc3)[C@@H]3CCCNC3)nccc2c1F [Example 911, N-(5-fluoro-6-methoxy-8-methyl-1-isoquinolyl)-6-(5-methyl-1,3,4-thiadiazol-2-yl)-N-[(3R)-3-piperidyl]pyridine-3-carboxamide]
1300 nM | Cc1nsc(-c2ccc(C(=O)N(c3nccc4scc(C)c34)[C@@H]3CCCNC3)c(F)c2)n1 [Example 779, (R)-2-fluoro-4-(3-methyl-1,2,4-thiadiazol-5-yl)-N-(3-methylthieno[3,2-c]pyridin-4-yl)-N-(piperidin-3-yl)benzamide]
120 nM | Cc1cccc2ccnc(N(C(=O)c3ccc(Nc4nccc(NCc5nccs5)n4)cc3F)[C@@H]3CCCNC3)c12 [Example 693, (R)-2-fluoro-N-(8-methylisoquinolin-1-yl)-N-(piperidin-3-yl)-4-((4-((thiazol-2-ylmethyl)amino)pyrimidin-2-yl)amino)benzamide]
210 nM | Cc1cccc2ccnc(N(C(=O)c3ccc(-c4nnn(C)c4C)cc3F)[C@@H]3CCCNC3)c12 [Example 830, (R)-4-(1,5-dimethyl-1H-1,2,3-triazol-4-yl)-2-fluoro-N-(8-methylisoquinolin-1-yl)-N-(piperidin-3-yl)benzamide]
140 nM | CCc1nnc(-c2ccc(C(=O)N(c3nccc4cccc(C)c34)[C@@H]3CCCNC3)cc2)s1 [Example 791, (R)-4-(5-ethyl-1,3,4-thiadiazol-2-yl)-N-(8-methylisoquinolin-1-yl)-N-(piperidin-3-yl) benzamide]
23 nM | Cc1cccc2ccnc(N(C(=O)c3ccc(N4CCOCC4)cc3F)[C@@H]3CCCNC3)c12 [Example 311, (R)-2-fluoro-N-(8-methylisoquinolin-1-yl)-4-morpholino-N-(piperidin-3-yl)benzamide]
400 nM | Cc1cccc2ccnc(N(C(=O)c3ccc(Nc4nccc(C5CCNCC5)n4)cc3F)[C@@H]3CCCNC3)c12 [Example 662, (R)-2-fluoro-N-(8-methylisoquinolin-1-yl)-N-(piperidin-3-yl)-4-((4-(piperidin-4-yl)pyrimidin-2-yl)amino)benzamide]
81 nM | Cc1cccc2ccnc(N(C(=O)c3ccc(Nc4nccc(NCCO)n4)cc3F)[C@@H]3CCCNC3)c12 [Example 734, (R)-2-fluoro-4-((4-((2-hydroxyethyl)amino)pyrimidin-2-yl)amino)-N-(8-methylisoquinolin-1-yl)-N-(piperidin-3-yl)benzamide]
330 nM | Nc1noc2ccc(-c3cc4c(N(C(=O)c5ccc(-n6nnc7cccnc76)cc5F)[C@@H]5CCCNC5)nccc4s3)cc12 [Example 420, N-[2-(3-amino-1,2-benzoxazol-5-yl)thieno[3,2-c]pyridin-4-yl]-2-fluoro-N-[(3R)-3-piperidyl]-4-(triazolo[4,5-b]pyridin-3-yl)benzamide]
